According to the supplement of paper PMC11208160:

assay: recombinant barcode read abundance after kanamycin selection (control-corrected) (log10(CPM+1)); higher = more efficient recombination; sequences stand for … in AGTGCAGAGAAAATCGGCCAGTTTTCTCTGCCTGCAGTCCGCATGCCGT…AGATTTATGCAGCGGACTGCCTTTCTCCCAAAGTGATAAACCGGACAGTATCATGGACCGGTTTTCCCGGTAATCCGTATTTGCAAGGTTGGTTTCACT; site = the 11-nt target
Summary of the method: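 Targets and IS621 bridge RNA target-binding loops were paired in oligos, each with a promoter, a barcode and the J23119-driven first 104 bridge RNA bases. A vector carrying the remaining 73 bp and a T7-inducible recombinase received these by Gibson cloning, and the pool was co-electroporated into E. coli with a donor plasmid. Duplicate plates contained chloramphenicol/ampicillin LB agar (control) or chloramphenicol/ampicillin/kanamycin with 0.1 mM IPTG. Recombination efficiency comes from averaged, control-corrected counts per million of recombinant-junction barcodes, reported as log10(CPM+1).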
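Also: IS621 recombinase and bridge RNA in Escherichia coli cells.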

Sequence | recombinant barcode read abundance (log10)
CAAACTCCTTGGGTTCTAACCTGTTGCGT (site CAAACTCCTAG) | 0.0424
GGTACTTCTTGGGTTCTAACCTGTTGCTT (site CACCACCCTCC) | 0.157
CGAACGACTTGGGTTCTAACCTGTTGCCT (site CGAACGACTAG) | 0.259
GGGATACCTTGGGTTCTAACCTGTTGCCT (site GGGATACCTAG) | 2.6
ACCAGTCCTTGGGTTCTAACCTGTTGCTG (site ACCAGTCCTCA) | 1.97
ACCTTGTCTTGGGTTCTAACCTGTTGCCT (site ACTTTGTCTAG) | 0.0709
TAGCGTCCTTGGGTTCTAACCTGTTGCAC (site TCGCGTCCTTT) | 0.157
CTTACAGCTTGGGTTCTAACCTGTTGCCT (site CTTACGGCTAG) | 0.0141
TAGCCTTCTTGGGTTCTAACCTGTTGCAG (site TAGGCGTCTCT) | 0.0752
AGACCTTCTTGGGTTCTAACCTGTTGCCT (site ACACCGTCTAG) | 0.0168
CTCCTACCTTGGGTTCTAACCTGTTGCCT (site CGCCTAGCTAG) | 0.11
GGTCACCCTTGGGTTCTAACCTGTTGCGG (site GGTGACCCTCC) | 0.0199
TTGAGTGCTTGGGTTCTAACCTGTTGCCT (site TTGACTGCTAG) | 0.0508
TAGAACTCTTGGGTTCTAACCTGTTGCCG (site TAGAACTCTGG) | 0.0844
TAGCATACTTGGGTTCTAACCTGTTGCCT (site TAGCATACTTG) | 0.0681
GAGGATCCTTGGGTTCTAACCTGTTGCCT (site GGGGATCCTAG) | 0.457
TTCTTTCCTTGGGTTCTAACCTGTTGCCT (site TTCTATCCTAG) | 0.0663
TAGATCACTTGGGTTCTAACCTGTTGCAT (site TAGTTCACTAT) | 0.0464
CTTAGGACTTGGGTTCTAACCTGTTGCCA (site CTTAGGACTAG) | 0.257
AGCAACCCTTGGGTTCTAACCTGTTGCAA (site CCGGGTACTCG) | 0.0862
TTAGCCTCTTGGGTTCTAACCTGTTGCCT (site TTAGCGTCTAG) | 0.137
GCACCGCCTTGGGTTCTAACCTGTTGCCT (site GCACCGCCTAG) | 1.09

Sequence | recombinant barcode read abundance (log10)
AGCAGTGCTTGGGTTCTAACCTGTTGCCT (site AGCAGTGCTAG) | 0.686
GCTCTCCCTTGGGTTCTAACCTGTTGCCT (site GCCCTCCCTAG) | 0.388
AGCCTTACTTGGGTTCTAACCTGTTGCCT (site ACCCTTACTAG) | 0.275
TAGGTGTCTTGGGTTCTAACCTGTTGCCT (site TAGGTGTCTAG) | 1.33
GCAGAGTCTTGGGTTCTAACCTGTTGCCT (site GAAGAGTCTAG) | 0.201
GGGGCATCTTGGGTTCTAACCTGTTGCTT (site GGGGCTTCTAA) | 0.0362
CCGCGGACTTGGGTTCTAACCTGTTGCTT (site CCGCAGACTAA) | 0.106
ACCAATCCTTGGGTTCTAACCTGTTGCCT (site ACCAATCCTAG) | 0.21
GCCGAAACTTGGGTTCTAACCTGTTGCCT (site GCCGATACTAG) | 0.311
AGTTGTCCTTGGGTTCTAACCTGTTGCAT (site AGTTGTCCTAA) | 0.0625
TACGGCTCTTGGGTTCTAACCTGTTGCTT (site TACGGCTCTAA) | 1.51
CTCTATTCTTGGGTTCTAACCTGTTGCAT (site CTCGATTCTAT) | 0.161
TAGTGAGCTTGGGTTCTAACCTGTTGCCG (site TAGTGAGCTCG) | 1.44
AGCCTTACTTGGGTTCTAACCTGTTGCCT (site AGCCTTACTAG) | 0.171
GCACGCCCTTGGGTTCTAACCTGTTGCCT (site TCCCGCCCTAG) | 0.0743
AGCTGGGCTTGGGTTCTAACCTGTTGCCT (site ACCTGGGCTAG) | 0.101
AGCGAATCTTGGGTTCTAACCTGTTGCCT (site AGGGAATCTAG) | 0.323
CGGGGCACTTGGGTTCTAACCTGTTGCCT (site CTGGGCACTAG) | 0.18
ACTTGGACTTGGGTTCTAACCTGTTGCAT (site ACTTGTACTAT) | 0.0581
TTACGTACTTGGGTTCTAACCTGTTGCCT (site TTACGTACTAG) | 1.45
AGCATCCCTTGGGTTCTAACCTGTTGCTG (site AGCATCCCTCA) | 1.47
GCAGAGTCTTGGGTTCTAACCTGTTGCCT (site GGAGAGTCTAG) | 0.0924

Sequence | recombinant barcode read abundance (log10)
GAGTAGTCTTGGGTTCTAACCTGTTGCCT (site GAGTAGTCTAG) | 2.39
GTACCTTCTTGGGTTCTAACCTGTTGCCT (site GGAGCTTCTAG) | 0.0858
GACAGGCCTTGGGTTCTAACCTGTTGCCT (site GACAGGCCTAG) | 0.627
GTACGATCTTGGGTTCTAACCTGTTGCAA (site GTACGATCTTT) | 0.962
TAGTGTGCTTGGGTTCTAACCTGTTGCCT (site TAGTGTGCTAG) | 1.06
GAGATCCCTTGGGTTCTAACCTGTTGCTA (site GAGATCCCTTA) | 1.93
GTCATACCTTGGGTTCTAACCTGTTGCCT (site GTCCTACCTAG) | 0.0356
GAAGGCGCTTGGGTTCTAACCTGTTGCCT (site GAAGACGCTAG) | 0.187
CTAAGGACTTGGGTTCTAACCTGTTGCTA (site CGAAGGACTTA) | 0.0114
CCTAGACCTTGGGTTCTAACCTGTTGCCT (site CCTAGAGCTAG) | 0.201
CTCCTGCCTTGGGTTCTAACCTGTTGCCT (site TTCCTGACTAG) | 0.0902
TGTGCTACTTGGGTTCTAACCTGTTGCAC (site TGTGCTACTGT) | 0.0867
CACTCTCCTTGGGTTCTAACCTGTTGCAT (site CACTCTCCTAG) | 0.11
TGGTATACTTGGGTTCTAACCTGTTGCCT (site TGGTATGCTAG) | 0.183
TAGGCTACTTGGGTTCTAACCTGTTGCAG (site TAGGCTACTAT) | 0.206
GTCGACCCTTGGGTTCTAACCTGTTGCCT (site GTCGACCCTAG) | 1.98
TAGAAGACTTGGGTTCTAACCTGTTGCTT (site TAGAAGACTCA) | 0.282
CAGCATACTTGGGTTCTAACCTGTTGCCT (site CAGCATACTAG) | 1.74
CGACACTCTTGGGTTCTAACCTGTTGCCT (site CAACACTCTAG) | 0.107
TTCTCTCCTTGGGTTCTAACCTGTTGCCT (site TTCTTTCCTAG) | 0.169
CAAATAACTTGGGTTCTAACCTGTTGCCT (site CAGCTAACTAG) | 0.134
TAGCCTACTTGGGTTCTAACCTGTTGCCG (site TAGGCTCCTCG) | 0.0184

Sequence | recombinant barcode read abundance (log10)
GGTGGGTCTTGGGTTCTAACCTGTTGCGT (site GGTGGGTCTAC) | 3.03
ATGGTCCCTTGGGTTCTAACCTGTTGCCT (site ATAGTCCCTAG) | 3.2
GGTCACCCTTGGGTTCTAACCTGTTGCGG (site GGTCACCCTCC) | 1.75
TTATGGGCTTGGGTTCTAACCTGTTGCCG (site TTATGGGCTCG) | 0.88
GTGAAGCCTTGGGTTCTAACCTGTTGCCA (site GTGAAGCCTTG) | 0.758
GGTCCATCTTGGGTTCTAACCTGTTGCCT (site GATCCATCTAG) | 0
ACAGCCTCTTGGGTTCTAACCTGTTGCCT (site ACAGCCTCTAG) | 2.84
GTAAGTACTTGGGTTCTAACCTGTTGCGG (site AGAAGTACTCC) | 0
TATCAGACTTGGGTTCTAACCTGTTGCCA (site TATCTGACTAG) | 0.119
GGGGTTCCTTGGGTTCTAACCTGTTGCCT (site GGGGTTCCTAT) | 1.42
CATAGGGCTTGGGTTCTAACCTGTTGCCG (site CATAGGGCTCG) | 1.03
GATTGGACTTGGGTTCTAACCTGTTGCTT (site AATTGGACTAA) | 0.38
TAGCCTACTTGGGTTCTAACCTGTTGCGC (site TAGCCTACTCC) | 0.0856
GCACCACCTTGGGTTCTAACCTGTTGCCT (site GCACGACCTAG) | 0.178
GCGCTAACTTGGGTTCTAACCTGTTGCCT (site GCGCTAACTAG) | 1.05
GTGTATCCTTGGGTTCTAACCTGTTGCCA (site GTGTATCCTTG) | 0.196
CGTCTACCTTGGGTTCTAACCTGTTGCTT (site AGTCTACCTAA) | 0.297
GTTCAACCTTGGGTTCTAACCTGTTGCCT (site GTTCAACCTAG) | 1.48
ACAGGCTCTTGGGTTCTAACCTGTTGCCT (site ACAGGCTCTAG) | 1.82
AAACCACCTTGGGTTCTAACCTGTTGCCT (site ACACCACCTAG) | 0.257
